Results as given in publication PMC11906762, “Toward a high-throughput in vitro model for estimating vitreous humor permeability of topically applied drugs” (Scientific Reports, 2025).
Where a name gives a salt, the structure may show the parent alone.

Key:
[1] = PAMPA with HA-200 (0.1 w/v%) as acceptor medium; conditions: HA (HA-200, HA-855; 0.1 w/v%) as acceptor-phase component; very low permeability and interference of HA with absorbance signal
[2] = PAMPA with HA-855 + agar (HA 0.07 w/v%; agar 0.095 w/v%) as acceptor medium; conditions: for permeability decrease with HA-855 + agar compared with agar alone: cationic compounds, acceptor HA-855 + agar vs agar
Method: Finally, the solutions were stored at room temperature overnight.
(§1) For each assay 3 replicates per compounds were measured.
In their study three types of HA-agar hydrogels were investigated with various HA and agar content from rheological and particle migration aspects. Hyaluronate as a viscoelastic polymer is an essential part of the model (as a native component of the VH itself) while agar is used to achieve elasticity and so to mimic the properties of the naturally occurring collagen fibrils. As a result of their study, they found the hydrogel containing 0.7 mg/ml (0.07 w/v%) HA (high molecular weight) and 0.95 mg/ml (0.095 w/v%) agar to be the most similar to bovine VH in the above-mentioned experiments. Since they conducted no permeability measurements with this promising hydrogel, we tested it as an acceptor medium in the PAMPA measurements. To gain further insight, experiments using only agar-containing acceptor phase were also carried out, since the standalone effect of the high molecular weight Na-HA was already investigated.

[3] = PAMPA with freshly excised porcine vitreous humor as acceptor medium; format: in vitro ADME; conditions: 250 µM API in PBS; UV detection; also after precipitation and filtering
Method: as §1
There has been an attempt made to use freshly excised porcine vitreous as acceptor medium in the experiments, for three APIs with sufficient absorption at a wavelength closer to the visible range (~ 300 nm) considering the cut-off of VH. […] When preparing the equilibrium solutions, one unit of API solution (250 µM, PBS) was mixed with (approximately) two units of VH. […] To gain clear spectra by removing background components, precipitation was attempted using cold acetonitrile, centrifugation, and filtration. […] The sample preparation process of VH containing samples was not further improved or investigated in this study.

[4] = Modified corneal-PAMPA, PBS as acceptor medium, UV-vis plate reader; format: in vitro ADME; conditions: general trend regardless of the acceptor medium
[5] = Solubility in PBS buffer (pH 7.4) for PAMPA donor solutions; format: physicochemical; conditions: PBS pH 7.4; used at 100 µM instead of 250 µM nominal concentration

N=C(N)c1ccc(OCCCOc2ccc(C(=N)N)cc2)cc1 [propamidine]
detection in the acceptor medium [1]: could not be detected in the acceptor medium

CCN(CC)CCCC(C)Nc1ccnc2cc(Cl)ccc12 (centres unmarked) [chloroquine diphosphate]
permeability decrease with HA-855 + agar compared with agar alone [2]: decrease the permeability in a greater extent than agar alone

CC(C)(C)NC[C@H](O)COc1nsnc1N1CCOCC1 [timolol, timolol maleate]
permeability decrease with HA-855 + agar compared with agar alone [2]: decrease the permeability in a greater extent than agar alone

COc1c(N2C[C@@H]3CCCN[C@@H]3C2)c(F)cc2c(=O)c(C(=O)O)cn(C3CC3)c12 [moxifloxacin, moxifloxacin hydrochloride]
detection of API in porcine vitreous humor acceptor medium [3]: no API could be detected
permeability (qualitative) [4]: low permeability

CCCCNc1ccc(C(=O)OCCN(C)C)cc1 [tetracaine HCl, tetracaine hydrochloride]
permeability decrease with HA-855 + agar compared with agar alone [2]: decrease the permeability in a greater extent than agar alone

CC(C)NCC(O)COc1cccc2ccccc12 (centres unmarked) [propranolol HCl, propranolol hydrochloride]
permeability decrease with HA-855 + agar compared with agar alone [2]: decrease the permeability in a greater extent than agar alone

CNCC[C@H](Oc1cccc2ccccc12)c1cccs1 [duloxetine HCl, duloxetine hydrochloride]
permeability decrease with HA-855 + agar compared with agar alone [2]: decrease the permeability in a greater extent than agar alone

O=C(c1ccccc1)c1ccc2n1CCC2C(=O)O (centres unmarked) [ketorolac]
detection of API in porcine vitreous humor acceptor medium [3]: no API could be detected
permeability (qualitative) [4]: low permeability

CCn1cc(C(=O)O)c(=O)c2cc(F)c(N3CCNCC3)nc21 [enoxacin]
detection in the acceptor medium [1]: could not be detected in the acceptor medium

NC(=O)N1c2ccccc2C=Cc2ccccc21 [carbamazepine]
solubility (qualitative) [5]: poor solubility

CCCCOc1cc(C(=O)OCCN(CC)CC)ccc1N [oxybuprocaine HCl, oxybuprocaine hydrochloride]
permeability decrease with HA-855 + agar compared with agar alone [2]: decrease the permeability in a greater extent than agar alone

C[C@@H]1C[C@H]2[C@@H]3CCC4=CC(=O)C=C[C@]4(C)[C@@]3(F)[C@@H](O)C[C@]2(C)[C@@]1(O)C(=O)CO [dexamethasone]
solubility (qualitative) [5]: poor solubility
detection in the acceptor medium [1]: could not be detected in the acceptor medium

O=C(O)Cc1ccccc1Nc1c(Cl)cccc1Cl [diclofenac Na]
direction of permeability change against corneal-PAMPA (PBS) ([2]; acceptor HA-855 + agar): significant increase

CNC(=C[N+](=O)[O-])NCCSCc1ccc(CN(C)C)o1 [ranitidine, ranitidine hydrochloride]
detection in the acceptor medium [1]: could not be detected in the acceptor medium
